Results on 14 compounds are retold here after patent publication US10730866B2, “Indole derivatives and use thereof” (Purdue Pharma L.P., priority 2014, dated 2020).

What is called IC50 is the concentration that inhibits the measured activity by half.

The target of one test is human Nav1.7 (Homo sapiens (Human), UniProt Q15858). Briefly: FLIPR or FLIPR TETRA sodium dye assay for sodium channel blocking activity. It counts as cell-based. Conditions: recombinant HEK293 cells expressing human Nav1.7. Here is the method: In vitro assays were performed in a recombinant cell line expressing cDNA encoding the alpha subunit (Nav1.7, SCN9a, PN1, NE) of human Nav1.7 (Accession No. NM_002977). The cell line was provided by investigators at Yale University (Cummins et al, J. Neurosci. 18(23): 9607-9619 (1998)). For dominant selection of the Nav1.7-expressing clones, the expression plasmid co-expressed the neomycin resistance gene. The cell line was constructed in the human embryonic kidney cell line, HEK293, under the influence of the CMV […] promoter, and stable clones were selected using limiting dilution cloning and antibiotic selection using the neomycin analogue, G418. Recombinant beta and gamma subunits were not introduced into this cell line. Additional cell lines expressing recombinant Nav1.7 cloned from other species can also be used, alone or in combination with various beta subunits, gamma subunits or chaperones.
human Nav1.7, sequence (Q15858 other isoform, or with tags, fused parts or gaps): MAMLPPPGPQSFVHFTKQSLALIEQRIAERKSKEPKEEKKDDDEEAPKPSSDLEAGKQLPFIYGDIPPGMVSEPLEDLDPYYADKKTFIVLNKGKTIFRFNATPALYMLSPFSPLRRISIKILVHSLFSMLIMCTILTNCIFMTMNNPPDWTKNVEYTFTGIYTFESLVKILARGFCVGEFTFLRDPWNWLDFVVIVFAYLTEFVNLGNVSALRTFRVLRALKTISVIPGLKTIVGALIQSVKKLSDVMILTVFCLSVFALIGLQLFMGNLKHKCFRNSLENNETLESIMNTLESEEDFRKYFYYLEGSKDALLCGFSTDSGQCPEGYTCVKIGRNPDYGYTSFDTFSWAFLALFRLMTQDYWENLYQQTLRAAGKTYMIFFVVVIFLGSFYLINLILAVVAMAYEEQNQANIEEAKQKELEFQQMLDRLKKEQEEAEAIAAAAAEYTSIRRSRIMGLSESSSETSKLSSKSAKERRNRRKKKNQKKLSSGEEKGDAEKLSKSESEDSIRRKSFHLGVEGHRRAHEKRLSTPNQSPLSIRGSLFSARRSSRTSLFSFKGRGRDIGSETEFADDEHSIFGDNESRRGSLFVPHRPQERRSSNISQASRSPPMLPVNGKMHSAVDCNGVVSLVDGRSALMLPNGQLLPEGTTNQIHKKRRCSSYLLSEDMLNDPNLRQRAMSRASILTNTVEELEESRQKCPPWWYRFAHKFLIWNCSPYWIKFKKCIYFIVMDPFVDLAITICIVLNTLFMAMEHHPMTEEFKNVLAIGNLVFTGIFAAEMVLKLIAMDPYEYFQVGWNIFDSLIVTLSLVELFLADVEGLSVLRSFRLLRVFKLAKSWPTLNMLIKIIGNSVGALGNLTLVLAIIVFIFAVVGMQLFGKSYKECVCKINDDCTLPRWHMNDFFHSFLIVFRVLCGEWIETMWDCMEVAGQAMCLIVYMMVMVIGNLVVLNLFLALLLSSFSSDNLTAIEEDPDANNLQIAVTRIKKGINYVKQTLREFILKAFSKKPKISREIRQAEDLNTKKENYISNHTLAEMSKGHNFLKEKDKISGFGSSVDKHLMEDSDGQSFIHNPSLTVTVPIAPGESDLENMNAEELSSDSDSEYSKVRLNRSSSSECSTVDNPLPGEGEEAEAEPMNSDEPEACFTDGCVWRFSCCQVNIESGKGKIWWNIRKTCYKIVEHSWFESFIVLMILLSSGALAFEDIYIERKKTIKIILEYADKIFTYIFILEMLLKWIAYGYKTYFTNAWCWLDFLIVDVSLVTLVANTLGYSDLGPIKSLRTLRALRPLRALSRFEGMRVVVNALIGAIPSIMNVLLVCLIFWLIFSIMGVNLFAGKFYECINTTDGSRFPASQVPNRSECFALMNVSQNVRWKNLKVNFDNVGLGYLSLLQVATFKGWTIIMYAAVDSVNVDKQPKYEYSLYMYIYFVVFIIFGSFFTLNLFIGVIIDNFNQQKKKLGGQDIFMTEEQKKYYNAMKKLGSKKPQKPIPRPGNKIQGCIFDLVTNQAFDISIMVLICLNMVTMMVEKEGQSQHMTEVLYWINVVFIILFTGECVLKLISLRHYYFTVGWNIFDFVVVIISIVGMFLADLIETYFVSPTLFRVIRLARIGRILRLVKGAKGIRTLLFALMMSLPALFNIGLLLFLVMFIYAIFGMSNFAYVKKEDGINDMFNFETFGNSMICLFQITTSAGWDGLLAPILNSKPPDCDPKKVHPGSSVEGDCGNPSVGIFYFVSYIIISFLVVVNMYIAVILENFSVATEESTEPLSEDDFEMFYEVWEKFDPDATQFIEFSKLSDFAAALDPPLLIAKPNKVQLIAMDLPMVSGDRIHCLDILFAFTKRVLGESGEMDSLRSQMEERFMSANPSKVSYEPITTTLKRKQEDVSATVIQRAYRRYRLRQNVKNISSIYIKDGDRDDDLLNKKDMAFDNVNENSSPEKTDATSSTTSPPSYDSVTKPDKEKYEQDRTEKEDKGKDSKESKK
Unless otherwise noted, cell culture reagents were purchased from Mediatech of Herndon, Va. The recombinant Nav1.7/HEK293 cells were routinely cultured in growth medium consisting of Dulbecco's […] essential medium containing 10% fetal bovine serum (FBS, Hyclone, Thermo Fisher Scientific, Logan, Utah), 100 U/mL penicillin, 100 μg/mL streptomycin, 2-4 mM L-glutamine, and […] G418. For natural, non-recombinant cell lines, the selective antibiotic was omitted, and additional media formulations can be applied as needed.
The final buffer consisted of 20 mM Hepes, pH 7.3, 1.261 mM CaCl2, 0.493 mM MgCl2, 0.407 mM Mg(SO)4, 5.33 mM KCl, 0.441 mM KH2PO4, 137 mM NaCl, 0.336 mM Na2HPO4 and […] D-glucose (Hanks et al., Proc. Soc. Exp. Biol. Med. 71:196 (1949)), and the simple formulation was typically the basic buffer throughout the assay (i.e., all wash and addition steps).
The fluorescence indicator used in the primary fluorescence assay was the cell permeant version of CoroNa™ Green (Invitrogen, Molecular Probes, Eugene, Oreg.), a dye that emits light in the fluorescence range (Harootunian et al., J. Biol. Chem. 264(32):19458-19467 (1989)). The intensity of this emission, but not the wavelength range, is increased when the dye is exposed to Na^+ ions, which it can bind with partial selectivity. Cells expressing Nav1.7 or other sodium channels were loaded with the CoroNa™ Green dye immediately in advance of the fluorescence assay, and then, after agonist stimulation, the mobilization of Na^+ ions was detected as the Na^+ ions flowed from the extracellular fluid into the cytoplasm through the activated sodium channel pores. The dye was stored in the dark as a lyophilized powder, and then an aliquot was dissolved immediately before the cell loading procedure, according to the instructions of the manufacturer, to a stock concentration of 10 mM in DMSO. It was then diluted in the assay buffer to a 4× concentrated working solution, so that the final concentration of dye in the cell loading buffer was 5 μM.
In the fluorescence assays, two agonists were used in combination, namely 1) veratridine; and 2) the venom from the yellow scorpion, Leiurus quinquestriatus hebraeus. Veratridine is an alkaloid small molecule that facilitates the capture of channel openings by inhibiting inactivation, and the scorpion venom is a natural preparation that includes peptide toxins selective for different subsets of voltage-gated sodium channels. These scorpion toxins inhibit the fast inactivation of their cognate target channels. Stock solutions of the agonists were prepared to 40 mM in DMSO (veratridine) and 1 mg/mL in dH2O (scorpion venom), and then diluted to make a 4× or 2× stock (depending on the particular assay) in assay buffer, the final concentration being 100 μM (veratridine) and 10 μg/mL (scorpion venom). Both of the agonists were purchased from Sigma Aldrich, St. Louis, Mo.
Test compounds were dissolved in DMSO to yield 10 mM stock solutions. […]

A further test deals with hNav1.7 (Homo sapiens (Human), UniProt Q15858). Briefly: Electrophysiology (EP) assay, whole-cell patch clamp. Format: cell-based. Conditions: hNav1.7 expressing HEK-293 cells; affinity for inactivated state; read-out: Nav1.7 Activity (μM) EP assay Ki. Here is the method: The hNav1.7 expressing HEK-293 cells are plated on 35 mm culture dishes pre-coated with poly-D-lysine in standard DMEM culture media (Mediatech, Inc., Herndon, Va.) and incubated in a 5% CO2 incubator at 37° C. Cultured cells are used approximately 12-48 hours after plating.
hNav1.7, sequence (Q15858 other isoform, or with tags, fused parts or gaps): as above
The hNav1.7 expressing HEK-293 cells are plated on tissue culture flasks in standard DMEM culture media (Mediatech, Inc.) and incubated in a 5% CO2 incubator at 37° C. Cultured cells are used approximately 12-48 hours after plating.
On the day of experimentation, the 35 mm dish is placed on the stage of an inverted microscope equipped with a perfusion system that continuously perfuses the culture dish with fresh recording media. A gravity driven superfusion system is used to apply test solutions directly to the cell under evaluation. This “shooter” system consists of an array of glass pipettes connected to a motorized horizontal translator. The outlet of the shooter is positioned approximately 100 μm from the cell of interest.
Whole cell currents are recorded using the whole-cell patch clamp configuration using an Axopatch 200B amplifier (Axon Instruments, Foster City Calif.), 1322A A/D converter (Axon Instruments) and pClamp software (v. 8; Axon Instruments) and stored on a personal computer. Gigaseals are formed and the whole-cell configuration is established in voltage clamp mode, and membrane currents generated by hNav1.7 channels are recorded. Borosilicate glass pipettes with resistance values between 1.5 and 2.0 MΩ when filled with pipette solution are used and series resistance (<5 MΩ) is compensated by 75-80%. Signals are sampled at 50 kHz and low pass filtered at 3 kHz.
Whole cell currents are recorded using the whole-cell patch clamp configuration using an Patchliner (Nanion Technologies, Munich Germany), EPC 10 quadro amplifiers (HEKA, Bellmore, N.Y.) and PatchControl HT 10905 (Nanion Technologies) and PatchMaster v2x73 software (HEKA) and stored on a personal computer. Gigaseals are formed and the whole-cell configuration is established in voltage clamp mode, and membrane currents generated by hNav1.7 are recorded. NPC-16 chips have resistance values between 1.0 and 2.0 MΩ when filled with pipette solution and series resistance (<5 MΩ). Signals are sampled at 25 kHz and low pass filtered at 3 kHz.
After establishing the whole-cell configuration in voltage clamp mode, voltage protocols are run to establish the 1) test potential (Vmax), 2) holding potential (Vh), and 3) the conditioning potential for each cell.
After establishing the whole-cell configuration in voltage clamp mode, a standard I-V protocol is run to determine the potential at which the maximal current (Imax) is elicited. This potential is the test potential (Vt). To determine a conditioning potential at which 100% of channels are in the inactivated state, a standard steady-state inactivation (SSIN) protocol is run using a series of fifteen 100 ms-long depolarizing prepulses, incrementing in 10 mV steps, immediately followed by a 5 ms testing pulse to Vmax. This protocol also permits determination of the holding potential at which all channels are in the resting state.
For compounds causing significant retardation of recovery from inactivation, an estimate of the affinity for the inactivated state of the channel (Ki) is generated using the following protocol. From the negative, no residual inactivation, holding potential, the cell is depolarized to the conditioning voltage for 2-5 seconds, returned to the negative holding potential for 10-20 ms to relieve fast inactivation and then depolarized to the test potential for ˜15 ms. This voltage protocol is repeated every 10-15 seconds, first to establish a baseline in the absence of the test compound, then in the presence of the test compound.
After a stable baseline is established, the test compound is applied and block of the current elicited by the test pulse assessed. […]
(In general: The patch-clamp technique gives a direct electrical read-out from membranes.)

The structures appear in SMILES notation.

Turning to `CC(C)Cn1ccc2cc(-c3cccc(S(=O)(=O)Nc4ncns4)n3)ccc21` [Compound 41, 6-(1-isobutyl-1H-indol-5-yl)-N-(1,2,4-thiadiazol-5-yl)pyridine-2-sulfonamide], the IC50 on human Nav1.7 came out at 0.514 ± 0.054 µM. Moreover, on hNav1.7, the Ki was found to be 0.322 ± 0.113 µM.

In the case of `NC(=O)c1cc(N[C@H]2CCNC2=O)nc(-c2ccc3ncn(-c4ccc(C(F)(F)F)cc4)c3c2)n1` [Compound 44, (S)-6-((2-oxopyrrolidin-3-yl)amino)-2-(1-(4-(trifluoromethyl)phenyl)-1H-benzo[d]imidazol-6-yl)pyrimidine-4-carboxamide], on human Nav1.7, the IC50 was 1.72 ± 0.156 µM. In addition, the Ki at hNav1.7 was 1.54 ± 0.446 µM.

With `O=C(Nc1ccc(C(F)(F)F)cc1)c1cc(N[C@H]2CCNC2=O)nc(-c2ccc3[nH]ccc3c2)n1` [Compound 78, (S)-2-(1H-indol-5-yl)-6-((2-oxopyrrolidin-3-yl)amino)-N-(4-(trifluoromethyl)phenyl)pyrimidine-4-carboxamide], the IC50 at human Nav1.7 is 1.83 ± 0.459 µM. At hNav1.7, the Ki was 1.28 ± 0.48 µM.

For the compound `NC(=O)c1cccc(-c2ccc3c(cnn3Cc3ccc(C(F)(F)F)cc3)c2)n1` [Compound 105, 6-(1-(4-(trifluoromethyl)benzyl)-1H-indazol-5-yl)picolinamide], the IC50 on human Nav1.7 amounted to 0.897 ± 0.114 µM. Further, the Ki at hNav1.7 came out at 0.7 ± 0.049 µM.

`OC[C@@H](O)c1cccc(-c2cnc3c(ccn3Cc3ccc(C(F)(F)F)cc3)c2)n1` [Compound 106, (S)-1-(6-(1-(4-(trifluoromethyl)benzyl)-1H-pyrrolo[2,3-b]pyridin-5-yl)pyridin-2-yl)ethane-1,2-diol]: the 50% inhibitory concentration (IC50) on human Nav1.7 is 1.33 ± 0.164 µM. At hNav1.7, the Ki was found to be 0.286 ± 0.027 µM. As to `OC[C@@H](O)c1cccc(-c2ccc3c(cnn3Cc3ccc(C(F)(F)F)cc3)c2)n1` [Compound 107, (S)-1-(6-(1-(4-(trifluoromethyl)benzyl)-1H-indazol-5-yl)pyridin-2-yl)ethane-1,2-diol], the IC50 on human Nav1.7 was 1.09 ± 0.077 µM. Besides, the Ki at hNav1.7 is 0.534 ± 0.032 µM.

Take `NC(=O)c1cc([C@@H](O)CO)cc(-c2ccc3c(ccn3Cc3ccc(C(F)(F)F)cc3)c2)n1` [Compound 120, (R)-4-(1,2-dihydroxyethyl)-6-(1-(4-(trifluoromethyl)benzyl)-1H-indol-5-yl)picolinamide]: at human Nav1.7, the IC50 came to 1.91 ± 0.458 µM. The Ki at hNav1.7 worked out at 2.03 ± 0.608 µM.

With `NC(=O)c1cc(-c2ccc3c(ccn3Cc3ccc(C(F)(F)F)cc3)c2)cc([C@H](O)CO)n1` [Compound 123, (S)-6-(1,2-dihydroxyethyl)-4-(1-(4-(trifluoromethyl)benzyl)-1H-indol-5-yl)picolinamide], the IC50 on human Nav1.7 is 1.52 ± 0.152 µM. Moreover, the Ki on hNav1.7 worked out at 1.02 ± 0.368 µM. With `CC(C)Cn1ccc2cc(-c3cccc([C@H](O)[C@@H](O)C(N)=O)n3)ccc21` [Compound 150, (2R,3S)-2,3-dihydroxy-3-(6-(1-isobutyl-1H-indol-5-yl)pyridin-2-yl)propanamide], at human Nav1.7, the IC50 is 1.38 ± 0.146 µM. Also, on hNav1.7, the Ki came to 0.678 ± 0.172 µM. With `NC(=O)[C@H](O)[C@@H](O)c1cccc(-c2ccc3c(ccn3CC3CCCCC3)c2)n1` [Compound 152, (2R,3S)-3-(6-(1-(cyclohexylmethyl)-1H-indol-5-yl)pyridin-2-yl)-2,3-dihydroxypropanamide], the IC50 at human Nav1.7 stood at 0.402 ± 0.032 µM. As to `CC(C)Cn1ccc2cc(-c3cccc([C@H](O)[C@@H](O)C(N)=O)n3)ccc21` [Compound 153, (2R,3S)-2,3-dihydroxy-3-(6-(1-isobutyl-1H-indol-5-yl)pyridin-2-yl)propanamide], the IC50 at human Nav1.7 is 2.62 ± 0.071 µM. On to `NC(=O)[C@H](O)[C@@H](O)c1cccc(-c2ccc3c(ccn3CC3CC3)c2)n1` [Compound 154, (2R,3S)-3-(6-(1-(cyclopropylmethyl)-1H-indol-5-yl)pyridin-2-yl)-2,3-dihydroxypropanamide], for which the IC50 on human Nav1.7 was in the range of 10 to 20 µM. Besides, the Ki at hNav1.7 came out at 27.2 ± 8.2 µM. Turning to `CC(C)Cn1ncc2cc(-c3cccc([C@H](O)[C@@H](O)C(N)=O)n3)ccc21` [Compound 155, (2R,3S)-2,3-dihydroxy-3-(6-(1-isobutyl-1H-indazol-5-yl)pyridin-2-yl)propanamide], the IC50 at human Nav1.7 was greater than 20 µM. Moreover, the Ki on hNav1.7 amounted to 10.6 ± 3.9 µM.

In the case of `NC(=O)c1csc(-c2ccc3c(ccn3Cc3ccc(C(F)(F)F)cc3)c2)n1` [Compound 156, 2-(1-(4-(trifluoromethyl)benzyl)-1H-indol-5-yl)thiazole-4-carboxamide], the IC50 on human Nav1.7 came to 0.173 ± 0.018 µM.
